According to ChEMBL document CHEMBL5357053, “Neopetrotaurines A-C, Isoquinoline Alkaloids with an Unprecedented Taurine Bridge from the Sponge Neopetrosia sp” (J Nat Prod, 2024):
pIC50: −log10 of the molar value. The source made the active and inactive calls. No cut-off for these calls is given here.

What was measured:
Format in all cases: functional, cell-based
SCMC = test: Downregulation of FOXO1 target gene set in human SCMC cells measured after 6 hrs by GSEA method
[1] = Antiproliferative activity against human Rh4 cells assessed as inhibition of cell viability measured after 72 hrs by IncuCyte live-cell imaging assay; conditions: Rh4, 72 h
[2] = Antiproliferative activity against human SCMC cells assessed as inhibition of cell viability measured after 72 hrs by IncuCyte live-cell imaging assay
Rh4 = test: Downregulation of FOXO1 target gene set in human Rh4 cells measured after 6 hrs by GSEA method; conditions: dose 1.9 µM

Compound	Activity (SCMC)	pIC50 [1]	pIC50 [2]	Activity (Rh4)
COC1=C(C)C(=O)c2c(cn(C)c(=O)c2NCCS(=O)(=O)Oc2c(C)c(OC)c(O)c3c[n+](C)c(C(=O)O)cc23)C1=O	inactive	5.64	5.13	inactive
COC(=O)c1cc2c(OS(=O)(=O)CCNc3c4c(cn(C)c3=O)C(=O)C(OC)=C(C)C4=O)c(C)c(OC)c(O)c2c[n+]1C	Active	5.48	4.96	Active
COC1=C(C)C(=O)c2c(cn(C)c(=O)c2NCCS(=O)(=O)Oc2c(C)c(OC)c(O)c3c[n+](C)ccc23)C1=O	inactive	5.72	5.14	inactive
